Source: patent US7629438B2, “Group of synthetic antimicrobial peptides” (priority 2002, dated 2009)
In brackets after ≈: the same amount, converted by molar mass. Read-outs that look alike come from different tables or passages of the source. Ends that are not written are not given here. Peptide text beside a SMILES is read from it.

How the values were obtained:
[1] = tested on: Bacillus pumilus CMCC63202; type: cell-based
Procedure: (§1) The minimum inhibitory concentrations (MIC) of the invention peptides were determined using methods described below:
(§2) The strain was recovered, inoculated into sloped medium, and grown overnight at 37° C. Typical clone selected were grown overnight at 37° C. in LB culture, diluted in the same medium to give concentrations of about 10^4-10^5 CFU/ml. The broth dilutions were set up in a 96-well microtiter plate by putting 100 μl of LB-S in every well. Added diluted peptide to every well (10 ul per well), cultured overnight at 37° C. The next day, the plates were scored for growth in the wells, and the MIC determined (In Yup Park et al.; FEBS Letters; 437 (1998) 258-262).

[2] = tested on: Candida albicans ATCC10231; type: cell-based
Procedure: as §1, §2

[3] = tested on: Escherichia coli ATCC8099; type: cell-based
Procedure: as §1, §2

[4] = tested on: Klebsiella pneumoniae CMCC46117; type: cell-based
Procedure: as §1, §2

[5] = tested on: Micrococcus lutea CMCC28001; type: cell-based
Procedure: as §1, §2

[6] = tested on: Micrococcus lysoleikticus S1.634; type: cell-based
Procedure: as §1, §2

[7] = tested on: Pseudomonas aeruginosa CMCC10104; type: cell-based
Procedure: as §1, §2

[8] = tested on: Saccharomyces cerevisiae ATCC9736; type: cell-based
Procedure: as §1, §2

[9] = tested on: Staphylococcus aureaus CMCC26003; type: cell-based
Procedure: as §1, §2

[10] = tested on: S. aureus CMCC26003; type: in vivo, Kunming mouse; settings: for Inhibitory rate: S. aureus infected mice
Procedure: The infection model was Staphylococcus aureus infection in the Kunming mouse.
S. aureus CMCC26003 was cultured overnight, with moderate agitation, in Veal Infusion broth (Difco) and diluted in broth containing 5% hog gastric mucin (Difco). Male Kunming mice weighing approximately 20 grams were infected intraperitoneally with 10^6-10^7 viable cells. There were 3 mice in each treatment group. Antimicrobial peptide GK-1 was administered intravenously (in 0.1 ml 5% dextrose for injection), within 10 minutes of infection. Vancomycin was administered subcutaneously.

[11] = tested on: Bacillus subtilis DB430; test: MIC assay, 96-well microtiter plate; type: cell-based; settings: Bacillus subtilis DB430 (G+)
Procedure: as §1, §2

[12] = tested on: CMCC50094; test: MIC assay, 96-well microtiter plate; type: cell-based; settings: B Subacute sclerosing panencephalitis CMCC50094 (G−)
Procedure: as §1, §2

[13] = tested on: K562 (human chronic myeloid leukemia cell)
Procedure: (§3) To determine the inhibitory activity of the peptides against tumor cells, a MTT colorimetric assay was performed. Fifty percent inhibitory concentrations of the antimicrobial peptides against tumor cells and normal fibroblasts were determined. Tumor cell K562 (human chronic myeloid leukemia cell), Bcap-37 (human breast cancer cell), QGY-7703 (human hepatocellular carcinoma cell), LOVO colon cancer cell, and mouse NIH-3T3 fibroblast were selected. These cells were provided by the College of Life Sciences, Fudan University. Cells were grown in RPMI1-1640, containing 10% inactivated calf serum. Cells were transferred into the 96-well plate at 2*10^4 cells/well, and 150 μl was added in each well. After the 96-well plate were incubated overnight at 37, in 5% carbon dioxide, 20 μl diluted peptide solution was added to each well, then incubated for 3 days, 20 μl MTT solution was added to each well, and incubated at 37° C. for 4 hours, 40 μl, 002M HCl solution containing 20% SDS was added to each well to solve the purple crystal, and incubated overnight at 37° C. The absorbance at 570 nm was determined.

[14] = tested on: Bcap-37 (human breast cancer cell)
Procedure: as §3

[15] = tested on: QGY-7703 (human hepatocellular carcinoma cell)
Procedure: as §3

[16] = tested on: LOVO colon cancer cell
Procedure: as §3

[17] = tested on: mouse NIH-3T3 fibroblast
Procedure: as §3

| Molecule | MIC [1] [µg/mL] | MIC [2] [µg/mL] | MIC [3] [µg/mL] | MIC [4] [µg/mL] | MIC [5] [µg/mL] | MIC [6] [µg/mL] | MIC [7] [µg/mL] | MIC [8] [µg/mL] | MIC [9] [µg/mL] | MIC [11] [µg/mL] | MIC [12] [µg/mL] | inhibitory activity against tumor cells (IC50) [13] [µg/mL] | inhibitory activity against tumor cells (IC50) [14] [µg/mL] | inhibitory activity against tumor cells (IC50) [15] [µg/mL] | inhibitory activity against tumor cells (IC50) [16] [µg/mL] | IC50 against normal fibroblasts [17] [µg/mL] | further results |
| --- | --- | --- | --- | --- | --- | --- | --- | --- | --- | --- | --- | --- | --- | --- | --- | --- | --- |
| CC[C@H](C)[C@@H]1NC(=O)CNC(=O)[C@H]([C@@H](C)CC)NC(=O)[C@H](CCCCN)NC(=O)[C@H](CCCCN)NC(=O)[C@H](Cc2ccccc2)NC(=O)[C@H](CC(C)C)NC(=O)[C@H](CCCCN)NC(=O)[C@H](Cc2c[nH]c3ccccc23)NC(=O)[C@H](CCCCN)NC(=O)[C@H](CCCCN)NC(=O)[C@H](CC(C)C)NC(=O)[C@H](CC(C)C)NC(=O)[C@H](CCCCN)NC(=O)[C@H](CCCNC(=N)N)NC(=O)[C@H](CC(C)C)NC(=O)CNC(=O)[C@H](CCCNC(=N)N)NC(=O)[C@H](CCCCN)NC(=O)[C@H](CC(C)C)NC(=O)[C@H](CC(C)C)NC(=O)[C@H](CCCNC(=N)N)NC(=O)CNC1=O [GK-20] (cyclo(KWKLFKKIGIGRLLKRGLRKLLK); ring closure inferred) | 6 (≈ 2.16 µM) | 18 (≈ 6.49 µM) | 8 (≈ 2.88 µM) | 10 (≈ 3.6 µM) | 4 (≈ 1.44 µM) | 2 (≈ 0.721 µM) | 10 (≈ 3.6 µM) | 20 (≈ 7.21 µM) | 0.8 (≈ 0.288 µM) |  |  |  |  |  |  |  |  |
| CN[C@H](CC(C)C)C(=O)N[C@H]1C(=O)N[C@@H](CC(N)=O)C(=O)N[C@H]2C(=O)N[C@H]3C(=O)N[C@H](C(=O)N[C@H](C(=O)O)c4cc(O)cc(O)c4-c4cc3ccc4O)[C@H](O)c3ccc(c(Cl)c3)Oc3cc2cc(c3O[C@@H]2O[C@H](CO)[C@@H](O)[C@H](O)[C@H]2O[C@H]2C[C@](C)(N)[C@H](O)[C@H](C)O2)Oc2ccc(cc2Cl)[C@H]1O [Vancomycin] |  |  |  |  |  |  |  |  |  |  |  |  |  |  |  |  | Inhibitory rate ([10]; 0.5 mg/kg s.c.): 0%; Inhibitory rate ([10]; 1.0 mg/kg s.c.): 40%; Inhibitory rate ([10]; 2.0 mg/kg s.c.): 80%; Inhibitory rate ([10]; 4.0 mg/kg s.c.): 100%; Inhibitory rate ([10]; 8.0 mg/kg s.c.): 100%; Effectiveness against S. aureus infection (protection of infected mice) ([10]; dosage of 4.5 mg/kg): 100% |
| KWKLFKKIGIGRLLKRGLRKLLK [GK-1] | 0.5 | 8 | 1 | 2 | 2 | 1.0 | 10 | 14 | 0.4 | 4 | 4 | 45 | 52 | 38 | 35 | >100 |  |
| KWKLFKKIGIGRLLRRLLRRLLR [GK-2] | 1 | 10 | 0.5 | 0.8 | 4 | 0.8 | 12 | 12 | 0.2 | 4 | 1 | 56 | 47 | 44 | 32 | >100 |  |
| RFKLFKKIPRLLRRGLRKVLK [GK-19] | 10 | 16 | 2 | 2 | 10 | 4 | 4 | 12 | 1.0 | 2 | 1 |  |  |  |  |  |  |
| RWKLFKKIEKVGRNVRDGLIKAGPAIAVIGQAKSL [cecropin A1, reference compound] | 50 | 50 | 20 | 16 | 30 | 50 | 18 | 50 | 16 | 12 | 12 |  |  |  |  |  |  |
| RWRLFKRIGIGRLLKRGLR [GK-3] | 0.8 | 11 | 1.6 | 2 | 3 | 1.2 | 1.8 | 12 | 0.5 | 5 | 6 | 13 | 25 | 21 | 31 | >100 |  |
